In ChEMBL document CHEMBL1201862, “PubChem BioAssay data set” (2004):
Calls of active or inactive are those of the source.

How the values were obtained:
[1] = molecular target: T1, Histone-lysine N-methyltransferase NSD2 (Homo sapiens, UniProt O96028); assay type: biochemical
T1 sequence (O96028 whole entry): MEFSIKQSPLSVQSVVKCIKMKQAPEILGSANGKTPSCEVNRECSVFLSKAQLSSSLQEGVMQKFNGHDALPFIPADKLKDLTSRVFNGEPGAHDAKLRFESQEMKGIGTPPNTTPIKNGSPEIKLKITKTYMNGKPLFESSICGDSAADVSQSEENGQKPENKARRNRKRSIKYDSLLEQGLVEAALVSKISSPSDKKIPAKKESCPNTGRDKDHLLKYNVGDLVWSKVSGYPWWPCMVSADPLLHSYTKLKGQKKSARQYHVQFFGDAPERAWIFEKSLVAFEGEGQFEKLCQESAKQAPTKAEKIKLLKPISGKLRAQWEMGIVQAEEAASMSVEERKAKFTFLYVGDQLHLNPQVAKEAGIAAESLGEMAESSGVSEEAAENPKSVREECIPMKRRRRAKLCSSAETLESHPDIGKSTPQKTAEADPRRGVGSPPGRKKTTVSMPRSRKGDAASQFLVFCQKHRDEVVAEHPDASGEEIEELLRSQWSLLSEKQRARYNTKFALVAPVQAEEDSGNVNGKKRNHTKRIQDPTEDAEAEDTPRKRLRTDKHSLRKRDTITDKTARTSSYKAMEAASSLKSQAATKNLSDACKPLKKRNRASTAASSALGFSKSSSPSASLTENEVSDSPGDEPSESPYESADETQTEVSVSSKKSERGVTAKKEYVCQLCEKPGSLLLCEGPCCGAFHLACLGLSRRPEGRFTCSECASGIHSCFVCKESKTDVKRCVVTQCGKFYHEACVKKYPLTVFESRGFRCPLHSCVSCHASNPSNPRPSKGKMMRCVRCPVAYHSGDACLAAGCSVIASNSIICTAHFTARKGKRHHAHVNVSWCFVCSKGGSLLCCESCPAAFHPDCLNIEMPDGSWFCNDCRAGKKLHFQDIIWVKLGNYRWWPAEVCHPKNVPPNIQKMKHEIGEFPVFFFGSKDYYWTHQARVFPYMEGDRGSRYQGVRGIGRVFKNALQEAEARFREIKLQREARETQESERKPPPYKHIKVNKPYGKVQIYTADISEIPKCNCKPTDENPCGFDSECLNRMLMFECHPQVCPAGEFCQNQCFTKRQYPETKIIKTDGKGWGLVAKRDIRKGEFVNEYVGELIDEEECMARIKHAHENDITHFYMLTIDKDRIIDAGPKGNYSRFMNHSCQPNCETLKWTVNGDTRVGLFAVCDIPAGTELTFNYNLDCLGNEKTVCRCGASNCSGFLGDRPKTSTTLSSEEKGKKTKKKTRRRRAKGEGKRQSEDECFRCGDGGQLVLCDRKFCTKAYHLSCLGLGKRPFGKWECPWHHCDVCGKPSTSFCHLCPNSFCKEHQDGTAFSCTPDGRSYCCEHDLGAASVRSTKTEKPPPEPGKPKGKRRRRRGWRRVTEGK

[2] = molecular target: T2, Calpain-2 catalytic subunit (Sus scrofa, UniProt P43367); experiment: pig calpain II inhibitor potency, dose response, biochemical, fluorogenic peptide substrate (AID 1420); assay type: functional
T2 sequence (P43367 whole entry): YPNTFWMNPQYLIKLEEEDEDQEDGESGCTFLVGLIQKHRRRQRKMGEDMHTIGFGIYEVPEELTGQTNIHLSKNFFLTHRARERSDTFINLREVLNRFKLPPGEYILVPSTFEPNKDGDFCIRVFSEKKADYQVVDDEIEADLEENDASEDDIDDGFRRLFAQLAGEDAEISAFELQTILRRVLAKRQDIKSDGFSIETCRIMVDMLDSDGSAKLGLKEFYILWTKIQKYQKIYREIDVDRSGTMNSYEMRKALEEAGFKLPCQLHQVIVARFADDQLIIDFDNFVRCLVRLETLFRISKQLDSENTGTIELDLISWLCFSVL

[3] = molecular target: T3, Leucine aminopeptidase (Plasmodium falciparum 3D7, UniProt Q8IL11); experiment: P. falciparum M17LAP inhibitors, primary screen, biochemical, fluorogenic H-Leu-NHMec substrate, 1536-well (AID 1619); assay type: functional
T3 sequence (Q8IL11 whole entry): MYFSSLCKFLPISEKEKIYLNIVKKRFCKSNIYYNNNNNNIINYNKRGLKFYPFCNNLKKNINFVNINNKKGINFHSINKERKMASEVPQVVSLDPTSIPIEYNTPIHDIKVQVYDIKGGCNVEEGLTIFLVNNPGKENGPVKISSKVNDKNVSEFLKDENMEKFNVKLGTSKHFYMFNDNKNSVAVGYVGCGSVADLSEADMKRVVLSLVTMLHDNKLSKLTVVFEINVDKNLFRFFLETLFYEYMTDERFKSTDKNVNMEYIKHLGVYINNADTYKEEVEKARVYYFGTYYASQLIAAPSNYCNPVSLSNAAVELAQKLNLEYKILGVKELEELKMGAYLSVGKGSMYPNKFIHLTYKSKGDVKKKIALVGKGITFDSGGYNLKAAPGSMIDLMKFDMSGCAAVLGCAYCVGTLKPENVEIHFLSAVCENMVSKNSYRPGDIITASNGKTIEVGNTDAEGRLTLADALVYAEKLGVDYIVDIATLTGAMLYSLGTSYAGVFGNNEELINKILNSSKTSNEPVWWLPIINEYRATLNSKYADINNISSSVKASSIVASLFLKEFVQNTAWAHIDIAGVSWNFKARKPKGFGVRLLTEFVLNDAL

[4] = tested on: HEK293; experiment: inhibitors of LMP1-driven NF-kB reporter, dose response, cell-based, HEK293, luciferase, cherry-pick (AID 588343); assay type: functional, Homo sapiens; details: Homo sapiens, HEK293
[5] = molecular target: Cytochrome P450 2C9 (Homo sapiens, UniProt P11712)
Chain of Cytochrome P450 2C9 (P11712 whole entry): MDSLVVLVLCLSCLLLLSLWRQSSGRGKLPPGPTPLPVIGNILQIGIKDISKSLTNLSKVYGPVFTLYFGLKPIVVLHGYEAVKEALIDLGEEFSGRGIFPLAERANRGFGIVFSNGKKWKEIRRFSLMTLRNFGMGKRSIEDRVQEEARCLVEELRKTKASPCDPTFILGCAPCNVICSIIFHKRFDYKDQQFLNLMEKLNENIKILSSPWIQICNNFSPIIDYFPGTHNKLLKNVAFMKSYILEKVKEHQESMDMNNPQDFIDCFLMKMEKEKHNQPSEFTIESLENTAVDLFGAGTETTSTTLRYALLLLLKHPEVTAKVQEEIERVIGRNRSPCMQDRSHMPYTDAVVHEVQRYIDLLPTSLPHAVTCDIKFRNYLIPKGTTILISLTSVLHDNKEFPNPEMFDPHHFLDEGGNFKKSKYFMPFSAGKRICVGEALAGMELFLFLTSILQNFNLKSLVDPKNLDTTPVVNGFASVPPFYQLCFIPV

[6] = cells; assay type: functional, cell-based
[7] = molecular target: T4, Cytochrome P450 1A2 (Homo sapiens, UniProt P05177);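 also: PubChem cytochrome P450 panel assay, CYP1A2 panel member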
T4 sequence (P05177 whole entry): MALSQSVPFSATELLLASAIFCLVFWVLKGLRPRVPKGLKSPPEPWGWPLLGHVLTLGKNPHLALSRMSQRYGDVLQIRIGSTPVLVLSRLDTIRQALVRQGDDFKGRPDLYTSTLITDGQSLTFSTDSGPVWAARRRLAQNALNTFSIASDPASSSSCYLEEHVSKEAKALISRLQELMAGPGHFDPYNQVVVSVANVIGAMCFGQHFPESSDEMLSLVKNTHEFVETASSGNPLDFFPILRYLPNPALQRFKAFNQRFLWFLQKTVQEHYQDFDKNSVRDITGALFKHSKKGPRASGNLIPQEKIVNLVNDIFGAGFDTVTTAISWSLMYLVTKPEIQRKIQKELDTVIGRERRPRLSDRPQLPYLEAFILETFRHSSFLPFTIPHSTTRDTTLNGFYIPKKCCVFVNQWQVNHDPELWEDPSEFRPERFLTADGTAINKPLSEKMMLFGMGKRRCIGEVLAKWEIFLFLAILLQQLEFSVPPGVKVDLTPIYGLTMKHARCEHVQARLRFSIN

[8] = cells; assay type: functional, cell-based; remark: listed apart in the source
[9] = cytotoxicity in OVCAR8 ovarian cancer cells, dose response, PAX8 project, cell-based, plate reader, dry powder samples (AID 743197); assay type: functional; details: OVCAR-8
[10] = molecular target: Paired box protein Pax-8 (Homo sapiens, UniProt Q06710); experiment: inhibitors of PAX8-driven TPO luciferase reporter, dose response, RMG-I cells, cherry-pick (AID 687027); assay type: functional, cell-based;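 also: luciferase reporter driven by Pax8 target thyroperoxidase promoter measured by SteadyGlo luminescence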
Chain of Paired box protein Pax-8 (Q06710 whole entry): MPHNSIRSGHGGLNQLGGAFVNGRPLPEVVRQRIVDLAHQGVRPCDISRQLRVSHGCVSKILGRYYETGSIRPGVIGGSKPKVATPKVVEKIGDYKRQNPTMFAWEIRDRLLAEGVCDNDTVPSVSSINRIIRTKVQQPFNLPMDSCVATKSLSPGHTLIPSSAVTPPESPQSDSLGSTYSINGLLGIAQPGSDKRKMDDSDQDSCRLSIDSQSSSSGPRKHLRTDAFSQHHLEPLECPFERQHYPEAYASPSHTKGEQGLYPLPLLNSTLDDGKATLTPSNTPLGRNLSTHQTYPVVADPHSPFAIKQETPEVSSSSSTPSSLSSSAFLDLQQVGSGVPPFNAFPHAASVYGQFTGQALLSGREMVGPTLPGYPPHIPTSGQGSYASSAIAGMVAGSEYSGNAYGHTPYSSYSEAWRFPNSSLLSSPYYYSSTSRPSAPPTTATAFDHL

[11] = molecular target: Prothrombin (Homo sapiens, UniProt P00734); experiment: Thrombin 1536 HTS Dose Response Confirmation. [Related pubchem assays: 1046 (Thrombin 1536 HTS; hits were confirmed in this assay)]; assay type: functional
[12] = inhibitors of SNCA 5'UTR-driven reporter translation, confirmation, H4 neuroglioma cells, luminescence (AID 1988); assay type: functional, cell-based
[13] = Luminescence Cell-Based Dose Response HTS to Identify Inhibitors of 5'UTR Stem-Loop Driven Prion Protein mRNA Translation in H4 Neuroglioblastoma Cells. [Related pubchem assays: 1827 (Project Summary), 1813 (Primary HTS)]; assay type: functional
[14] = molecular target: Large T antigen (Simian virus 40, UniProt P03070); assay type: functional, Betapolyomavirus macacae;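 also: Confirmatory-stage PubChem screen for compounds that inhibit SV40 T antigen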
Chain of Large T antigen (P03070 whole entry): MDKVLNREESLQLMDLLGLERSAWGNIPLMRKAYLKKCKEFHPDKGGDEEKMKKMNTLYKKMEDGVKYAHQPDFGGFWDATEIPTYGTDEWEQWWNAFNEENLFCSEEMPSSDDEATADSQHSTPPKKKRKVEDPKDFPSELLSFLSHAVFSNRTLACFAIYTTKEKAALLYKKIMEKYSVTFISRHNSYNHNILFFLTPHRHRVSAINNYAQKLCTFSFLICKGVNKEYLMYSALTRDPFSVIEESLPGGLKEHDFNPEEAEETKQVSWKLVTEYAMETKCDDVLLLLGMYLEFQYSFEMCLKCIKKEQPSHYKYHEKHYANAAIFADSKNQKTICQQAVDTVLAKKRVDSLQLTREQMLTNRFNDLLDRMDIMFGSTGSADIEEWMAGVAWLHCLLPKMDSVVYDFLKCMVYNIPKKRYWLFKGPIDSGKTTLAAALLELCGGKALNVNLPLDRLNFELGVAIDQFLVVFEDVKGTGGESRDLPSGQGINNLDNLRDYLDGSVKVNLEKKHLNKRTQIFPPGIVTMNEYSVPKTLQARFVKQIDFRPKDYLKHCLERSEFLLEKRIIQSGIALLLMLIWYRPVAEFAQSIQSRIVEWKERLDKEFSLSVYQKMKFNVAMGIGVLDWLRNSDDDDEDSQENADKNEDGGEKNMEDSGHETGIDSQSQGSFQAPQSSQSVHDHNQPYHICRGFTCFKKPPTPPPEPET

[15] = cells; assay type: functional
[16] = Vero E6 cell cytotoxicity, dose response, cytotoxicity control for non-replicating M. tuberculosis project, secondary assay (AID 492998); assay type: functional, VeroE6; details: Vero C1008
[17] = THP-1 cell cytotoxicity, dose response, cytotoxicity control for non-replicating M. tuberculosis project (AID 489025); assay type: functional
[18] = inhibitors of firefly luciferase expression or activity, dose response, H4 neuroglioma cells, luminescence (AID 1990); assay type: functional, cell-based
[19] = tested on: H9c2; experiment: cells; assay type: functional, cell-based; details: Rattus norvegicus, H9c2, Myocardium;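 also: confirmatory concentration-response retest of ultra-high-throughput screening hits for modulation of myocardial damage; cell death induced by hydrogen peroxide oxidative stress; compound pretreatment for 60 min then peroxide exposure for 2 h; potency is for protecting the cells against peroxide damage rather than for killing them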

## CCNCCNc1ccc(Cl)cc1[N+](=O)[O-]
[1]
  AC50: > 20 µM (inactive)

## CC(=O)C(=NNc1ccc(-n2ccc(C(F)(F)F)n2)cc1)C(C)=O
[2]
  IC50: 2.57 µM (active)

## Cc1ccc(C(=O)Nc2nc(=O)n(C(=O)C3CC3)s2)cc1
[3]
  IC50: 19.3 µM (active)

## O=C(Nc1ncccc1O)c1ccc(S(=O)(=O)NCc2ccco2)cc1
[4]
  AC50: 20.7 µM (active)

## CS(=O)(=O)c1ccc(C(=O)N2CCc3ccccc3C2)cc1
[2]
  IC50: 0.514 µM (not active)

## COc1cc(C(=O)Oc2ccccc2/C=N/NC(=O)c2ccc(C)cc2)cc(OC)c1OC
[5]
  AC50: 0.316 µM (inconclusive)
[6]
  EC50: > 350 µM (not active)
[7]
  AC50: 2.24 µM (inconclusive)
[8]
  EC50: > 350 µM (not active)

## C[C@@H]1CN([C@H](C)CO)C(=O)c2c(c3ccccc3n2C)-c2ccccc2CO[C@H]1CN(C)C(=O)Nc1cccc(C(F)(F)F)c1
[9]
  AC50: > 70 µM (inactive)
[10]
  AC50: 5.56 µM (active)

## CC(=O)n1nc(-c2cccc(C)c2)nc1SCC(=O)Nc1ccccc1
[11]
  IC50: 0.731 µM (active)

## Cc1nc(-[n+]2nc(-c3ccncc3)nn2-c2ccccc2)sc1C
[1]
  AC50: > 20 µM (inactive)

## Cc1ccc(/C=C/c2nc3ccccc3s2)s1
[12]
  EC50: 3.78 µM (active)
[13]
  EC50: 10.7 µM (active)
[4]
  AC50: 4.16 µM (active)

## O=C(O)c1cccc(NC(=S)NC(=O)c2ccc(-c3ccccc3)cc2)c1
[2]
  IC50: > 50 µM (not active)

## Cc1ccc(S(=O)(=O)N(C)C[C@@H]2OCCCC[C@H](C)Oc3ccc(NS(=O)(=O)c4ccc(F)cc4)cc3C(=O)N([C@H](C)CO)C[C@H]2C)cc1
[9]
  AC50: 55.9 µM (active)
[10]
  AC50: 5.5 µM (active)

## CCOc1cc(N2CCOCC2)c(OCC)cc1NC(C)C(=O)N1CCC(C)CC1 (stereo not drawn)
[14]
  IC50: 17.1 µM (active)
[6]
  EC50: > 350 µM (not active)
[8]
  EC50: > 350 µM (not active)

## COC(=O)c1ccc(NC2CC(=O)N(c3ccccc3C)C2=O)cc1 (stereo not drawn)
[11]
  IC50: > 50 µM (not active)

## Cc1cc(C)cc(Oc2nc(-c3ccccc3)cc(C)c2S(C)(=O)=O)c1
[2]
  IC50: 6.25 µM (not active)

## Cc1cccc(NC(=O)c2cnc3ccccn3c2=O)c1
[4]
  AC50: 2.26 µM (active)

## O=C(c1ccc(-c2ccc([N+](=O)[O-])cc2)o1)N1CCCCC1
[11]
  IC50: > 50 µM (not active)

## C/C(=N\Nc1nc2ccccc2nc1C)c1ccccc1O
[15]
  IC50: 2.54 µM (active)
[16]
  CC50: > 20 µM (active)
[17]
  CC50: > 40 µM (active)

## Cc1ccc(Cn2ccc(NC(=O)C3C4CCC(C4)C3C(=O)O)n2)cc1 (stereo not drawn)
[3]
  IC50: 10.2 µM (active)

## CC(C)(C)SCCNS(=O)(=O)c1ccc2ccccc2c1
[2]
  IC50: > 50 µM (not active)

## CCOC(=O)CCP(=O)(O)C(O)c1ccc(OC)cc1 (stereo not drawn)
[3]
  IC50: 8.59 µM (active)

## CCc1cc(C(=O)N/N=C/c2ccc(O)cc2O)c2ccccc2n1
[12]
  EC50: 7.63 µM (active)
[13]
  EC50: 13.3 µM (active)
[6]
  EC50: > 350 µM (not active)
[8]
  EC50: 9.29 µM (active)
[18]
  EC50: 16.7 µM (active)

## C/C(=N\NC(=O)CCCNc1ccc(C)cc1)c1ccccn1
[15]
  IC50: 18.4 µM (active)
[19]
  IC50: 13.6 µM (active)
[16]
  CC50: 14.3 µM (active)
[17]
  CC50: 13.1 µM (active)

## C[C@@H]1CN([C@@H](C)CO)C(=O)c2c(c3ccccc3n2C)-c2ccccc2CO[C@H]1CN(C)S(=O)(=O)c1ccccc1F
[9]
  AC50: > 70 µM (inactive)
[10]
  AC50: 5.88 µM (active)

## COc1cc(OC)cc(C(=O)n2cnnc2N)c1
[11]
  IC50: 0.1 µM (active)

## O=C(c1nc2ccccc2s1)N1CCN(c2ccccn2)CC1
[11]
  IC50: > 50 µM (not active)

## CCc1ccc(N2CC(C(=O)Nc3ccccc3F)CC2=O)cc1 (stereo not drawn)
[11]
  IC50: > 50 µM (not active)

## COc1cccc(S(=O)(=O)N(C)C[C@@H]2Oc3cc(C4=CCCCC4)ccc3S(=O)(=O)N([C@@H](C)CO)C[C@H]2C)c1
[9]
  AC50: 49.6 µM (active)
[10]
  AC50: 14.5 µM (active)
